Experimental data published in US20230286973A1, “PROTEIN SECRETION INHIBITORS” (KEZAR LIFE SCIENCES, priority 2020, published 2023).

What was measured:
[1] = test system: TNFα-FL/Gaussia Luciferase; experiment: Dox Induced TNFα-FL-Gluc Assay; format: cell-based; settings: for IC50: 24 hr Dox induction, 293FRT/TO cells, mean, read-out: 24 hr Dox Inducible TNFaFLGluc 293FRT/TO: Mean IC50; for 24 hr Dox Inducible TNFaFLGluc 293FRT/TO: TNF/PD1: ratio of TNFaFLGluc IC50 to PD1ssGluc IC50, '<=>' given where both are I.A.
How it was run: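 Compound was added with doxycycline to cells plated a day earlier, incubating at 37° C under 5% CO2. The reporter line is 293 T-REx expressing a TNFα (1-233)–Gaussia luciferase fusion under tetracycline-regulated control.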

[2] = test system: IL-2-FL/Gaussia Luciferase; experiment: Dox Induced IL2-FL-Gluc Assay; format: cell-based; settings: for IC50: 24 hr Dox induction, 293FRT/TO cells, mean, read-out: 24 hr Dox Inducible IL2FLGluc 293FRT/TO: Mean IC50; for 24 hr Dox Inducible IL2FLGluc 293FRT/TO: IL2/PD1: ratio of IL2FLGluc IC50 to PD1ssGluc IC50, '<=>' given where both are I.A.
How it was run: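 Compounds in DMSO/medium with doxycycline were applied to a 293 T-REx stable line expressing an IL-2 (aa 1-153)–Gaussia luciferase fusion under tetracycline-regulated control, cells seeded one day earlier; incubation at 37 °C, 5% CO2. Structures drawn without stereochemistry were tested as stereoisomer mixtures.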

[3] = test system: multiple myeloma cell line NCI-H929; experiment: H929 Cell Viability Assay; format: cell-based, human; settings: Homo sapiens, NCI-H929, 48 h, NCI-H929 cells, Celltiter-Glo
How it was run: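 Luminescent CellTiter-Glo read-out of viability after a 48 h exposure (37° C, 5% CO2) of NCI-H929 myeloma cells to compound dilutions in RPMI 1640 plus 10% FBS. Data for structures drawn without stereochemistry refer to stereoisomer mixtures.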

[4] = Liver Microsome Stability Assay (rat); settings: rat liver microsomes, with NADPH, 1.0 uM compound
Method: (§1) Stability of a compound was assessed in the presence of liver microsomes from various sources—mouse, rat, monkey and human liver microsomes. 1.0 uM compound, 0.4% DMSO in 0.1 M Potassium Phosphate with 1.0 mg/mL liver microsomes, were incubated at 37° C. with or without 1 mM NADPH. The samples were quenched at 0, and 30 minutes.

[5] = test system: multiple myeloma cell line U266B1; experiment: U266 Cell Viability Assay; format: cell-based, human; settings: Homo sapiens, U-266, 48 h, U266B1 cells, Celltiter-Glo
How it was run: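 CellTiter-Glo luminescence was read after a 48 h compound exposure (37 °C, 5% CO2) of human U266B1 myeloma cells grown in 10% FBS-supplemented RPMI 1640. Data for structures shown without defined stereochemistry refer to stereoisomer mixtures.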

[6] = Liver Microsome Stability Assay (monkey); settings: monkey liver microsomes, with NADPH, 1.0 uM compound
Method: as §1

[7] = test system: PD1-ss+10aa/Gaussia Luciferase; experiment: Dox-Induced PD1-ss-Gluc Assay; format: cell-based; settings: 24 hr Dox induction; 293FRT/TO cells; mean; read-out: 24 hr Dox Inducible PD1ssGluc 293FRT/TO: Mean IC50
How it was run: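 Gaussia luciferase fused downstream of the PD1 signal peptide plus 10 residues was expressed on doxycycline induction in stably transfected Flp-In 293 T-REx cells. Compounds were added with doxycycline and incubated at 37 °C, 5% CO2.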

[8] = Liver Microsome Stability Assay (human); settings: human liver microsomes, with NADPH, 1.0 uM compound
Method: as §1

[9] = Liver Microsome Stability Assay (mouse); settings: mouse liver microsomes, with NADPH, 1.0 uM compound
Method: as §1

[10] = test system: HER3-ss+4aa/Gaussia Luciferase; experiment: Dox-Induced Her3-ss-Gluc Assay; format: cell-based; settings: 24 hr Dox induction; 293FRT/TO cells; mean; read-out: 24 hr Dox Inducible Her3(ss + 4)Gluc 293FRT/TO: Mean IC50
How it was run: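 Compounds were diluted in DMSO/media containing doxycycline. They were added to Flp-In 293 T-REx cells plated the previous day, then incubated at 37 °C under 5% CO2. These cells stably express, under T-REx control, Gaussia luciferase fused to the HER3 signal sequence plus 4 amino acids.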

| Structure (SMILES) | IC50 [1] [µM] | 24 hr Dox Inducible TNFaFLGluc 293FRT/TO: TNF/PD1 [1] | IC50 [2] [µM] | 24 hr Dox Inducible IL2FLGluc 293FRT/TO: IL2/PD1 [2] | EC50 [3] [µM] | Liver Microsome Stability (Multiple Species): Rat - % Remaining after 30 min w/NADPH [4] [%] | EC50 [5] [µM] | Liver Microsome Stability (Multiple Species): Monkey - % Remaining after 30 min w/NADPH [6] [%] | IC50 [7] [µM] | Liver Microsome Stability (Multiple Species): Human - % Remaining after 30 min w/NADPH [8] [%] | Liver Microsome Stability (Multiple Species): Mouse - % Remaining after 30 min w/NADPH [9] [%] | IC50 [10] [µM] |
| --- | --- | --- | --- | --- | --- | --- | --- | --- | --- | --- | --- | --- |
| Cc1cccc(Cn2cccc2C(=O)Nc2nc([C@H]3CCCN3c3ccccc3)cs2)c1 [Compound C120, (R)-1-(3-methylbenzyl)-N-(4-(1-phenylpyrrolidin-2-yl)thiazol-2-yl)-1H-pyrrole-2-carboxamide] | > 25 | >5.66 | 2.06 | 0.47 | > 25 | 36.8 | > 25 | 51.1 | 4.42 | 62.8 | 38 | 1.83 |
| O=C(Nc1nc([C@H]2CCCN2c2ccccc2)cs1)c1cccn1Cc1cccc(Br)c1 [Compound C121, (R)-1-(3-bromobenzyl)-N-(4-(1-phenylpyrrolidin-2-yl)thiazol-2-yl)-1H-pyrrole-2-carboxamide] | > 25 | >10.8 | 1.33 | 0.58 | > 25 | 50.2 | > 25 | 44.2 | 2.31 | 64.9 | 52.1 | 1.21 |
| O=C(Nc1nc([C@H]2CCCN2c2ccccc2)cs1)c1cccn1Cc1cccc(Cl)c1 [Compound C122, (R)-1-(3-chlorobenzyl)-N-(4-(1-phenylpyrrolidin-2-yl)thiazol-2-yl)-1H-pyrrole-2-carboxamide] | > 25 | >23.3 | 1.35 | 1.3 | > 25 | 52.6 | > 25 | 52.2 | 1.08 | 75.8 | 50.6 | 1 |
| O=C(Nc1nc([C@H]2CCCN2c2ccccc2)cs1)c1cccn1CC1CCC(F)(F)C1 (stereo partly drawn) [Compound C123, 1-((3,3-difluorocyclopentyl)methyl)-N-(4-((R)-1-phenylpyrrolidin-2-yl)thiazol-2-yl)-1H-pyrrole-2-carboxamide] | 8.55 | 22.7 | 0.776 | 2.1 | > 25 | 6.16 | > 25 | 3.11 | 0.377 | 58.5 | 23.6 | 0.62 |
| O=C(Nc1nc(/C=C/c2ncc(F)cc2F)cs1)c1cccn1CC1CCOCC1 [Compound D2, (E)-N-(4-(2-(3,5-difluoropyridin-2-yl)vinyl)thiazol-2-yl)-1-((tetrahydro-2H-pyran-4-yl)methyl)-1H-pyrrole-2-carboxamide] | 6.09 | 15.3 | > 13.5 | >34 | > 23.9 | 0.39 | > 25 | 0.23 | 0.397 | 5.79 | 2.76 | 1.5 |
| Cc1ccc(/C=C/c2csc(NC(=O)c3cccn3CC3CCOCC3)n2)nc1F [Compound D3, (E)-N-(4-(2-(6-fluoro-5-methylpyridin-2-yl)vinyl)thiazol-2-yl)-1-((tetrahydro-2H-pyran-4-yl)methyl)-1H-pyrrole-2-carboxamide] | > 25 | >34.1 | 6.66 | 9.1 | 10.2 | 0.26 | > 17.8 | 0.09 | 0.734 | 0.24 | 0.46 | 2 |
| O=C(Nc1nc(/C=C/c2ncoc2C2CCCCC2)cs1)c1cccn1CC1CCOCC1 [Compound D4, (E)-N-(4-(2-(5-cyclohexyloxazol-4-yl)vinyl)thiazol-2-yl)-1-((tetrahydro-2H-pyran-4-yl)methyl)-1H-pyrrole-2-carboxamide] | > 25 | >24.1 | > 25 | >24 | > 25 | 1.86 | > 25 | 1.35 | 1.04 | 5.39 | 29.8 | 10.6 |
| O=C(Nc1nc(/C=C/c2cn(C3CCCCC3)cn2)cs1)c1cccn1CC1CCOCC1 [Compound D5, (E)-N-(4-(2-(1-cyclohexyl-1H-imidazol-4-yl)vinyl)thiazol-2-yl)-1-((tetrahydro-2H-pyran-4-yl)methyl)-1H-pyrrole-2-carboxamide] | > 25 | >32.2 | 13.5 | 17 | 18.9 | 0.16 | > 24.7 | 0.17 | 0.776 | 0.18 | 0.54 | 21.4 |
